{"source": "patent US20050148786A1", "about": "“Diimmonium compound and use thereof” (Nippon Kayaku Kabushiki Kaisha, priority 2003, published 2005)", "key": {"[1]": {"experiment": "Stability test of light fastness of diimmonium compound thin film", "assay_type": "physicochemical", "experimental": "0.1 part of the Compound No. 3 was added to 10 part of tetrafluoropropanol to produce a coating solution. The obtained coating solution was applied to a polycarbonate substrate by spin coating to form a thin film of the diimmonium compound. The […] source output: 0.36 W/m^2; bath temperature: 24° C.; black panel temperature: 40° C.; humidity: 30% RH: by a Weatherometer (Ci4000, manufactured by Atlas Co.). After that, the remaining ratio of the diimmonium compound was measured by a spectrophotometer.\nFor comparison, a dye film was formed and evaluated in the same manner, except that the compound described in Patent Document No. 3; hexafluoroantimonate of tetrakis[p-di(n-butyl)aminophenyl]phenylenediimmonium (Comparative Example 8: Compound No. 153); was used in place of the Compound No. 3."}, "[2]": {"experiment": "Comparative test of solubility measurement", "settings": "room temperature", "procedure": "The solubility was measured for the compounds obtained in the above-mentioned Examples at a room temperature in methyl ethyl ketone (MEK) and toluene."}, "[3]": {"experiment": "Stability test of moisture-and-heat resistance of near-IR absorption filter", "assay_type": "physicochemical", "experimental": "1.2 part of each compound obtained in each Example was dissolved in 18.8 part of MEK. 80 part of a resin solution obtained by dissolving 25 part of an acrylic resin (Dianal BR-80, manufactured by Mitsubishi Rayon Co., Ltd.) in 75 part of MEK was mixed with the obtained solution to obtain a solution for coating. The solution was applied to form a film with a thickness of 2 to 4 μm on a polyester film and dried at 80° C. to obtain a near-IR absorption filter of the invention.\nThe obtained near-IR absorption filter was subjected to a stability test of moisture-and-heat resistance for 14 days in a constant temperature and constant humidity apparatus under 60° C. and 95% RH conditions. The filter was subjected to color measurement by a spectrophotometer before and after the test to calculate L*, a*, and b* values. If the + value of b* value is high, it means that the hue is yellowish and if b* value is close to 0, it means that the yellowish degree is low and filter is desirable and therefore, the hue evaluation and stability evaluation were done based on the b* value and its change."}, "[4]": {"experiment": "thermal decomposition point (weight decrease starting point) by TG-DTA", "assay_type": "physicochemical", "settings": "measured by TG-DTA", "experimental": "the melting point: around 170° C.; and the thermal decomposition point (the weight decrease starting point): around 280° C. (measured by TG-DTA)"}, "[5]": {"experiment": "Comparative test of molar absorption coefficient measurement", "assay_type": "physicochemical", "settings": "in dichloromethane; in M-1·cm-1", "excerpt": "The compounds obtained in the above-mentioned Examples were subjected to the measurement of molar absorption coefficient (ε) in dichloromethane."}, "[6]": {"experiment": "maximum absorption wavelength (λmax) in dichloromethane", "assay_type": "physicochemical", "excerpt": "λmax: 1,102 nm (in dichloromethane);"}, "[7]": {"experiment": "Stability test of light fastness of cyanine dye film", "assay_type": "physicochemical", "experimental": "0.3 part of the cyanine dye (OM-57) was dissolved in 15 part of tetrafluoropropanol and 0.04 part of the Compound No. 3 was added to the obtained solution to produce a coating solution. The obtained coating solution was applied to a polycarbonate substrate by spin coating to form a dye film. The […] the conditions: light source output: 0.36 W/m^2; bath temperature: 24° C.; black panel temperature: 40° C.; humidity: 30% RH: by a Weatherometer (Ci4000, manufactured by Atlas Co.). After that, the remaining ratio of the cyanine dye was measured by a spectrophotometer.\nFor comparison, a dye film was formed and evaluated in the same manner, except that the compound described in Patent Document No. 3; hexafluoroantimonate of tetrakis[p-di(n-butyl)aminophenyl]phenylenediimmonium (Comparative Example 7: Compound No. 153); was used in place of the Compound No. 1."}, "[8]": {"settings": "Weatherometer 0.36 W/m^2, 24° C., 30% RH, 100-hour"}, "[9]": {"settings": "Weatherometer 0.36 W/m^2, 24° C., 30% RH, 150-hour"}}, "data": [{"smiles": "N#CCCCN(CCCC#N)c1ccc([N+](=C2C=CC(=[N+](c3ccc(N(CCCC#N)CCCC#N)cc3)c3ccc(N(CCCC#N)CCCC#N)cc3)C=C2)c2ccc(N(CCCC#N)CCCC#N)cc2)cc1.O=S(=O)([N-]S(=O)(=O)C(F)(F)F)C(F)(F)F.O=S(=O)([N-]S(=O)(=O)C(F)(F)F)C(F)(F)F", "note": "[Compound No. 3]", "values": [{"measurement": "remaining ratio of diimmonium compound (%), 100-hour after", "setting": "[1]; [8]", "result": 88, "unit": "%"}, {"measurement": "remaining ratio of diimmonium compound (%), 150-hour after", "setting": "[1]; [9]", "result": 86, "unit": "%"}, {"measurement": "remaining ratio of diimmonium compound (%), initial period", "setting": "[1]; thin film on polycarbonate, before irradiation", "result": 100, "unit": "%"}, {"measurement": "solubility in MEK", "setting": "[2]; methyl ethyl ketone", "result": 2, "unit": "%"}, {"measurement": "solubility in toluene", "setting": "[2]; toluene", "result": "insoluble"}, {"measurement": "b* value, difference", "setting": "[3]; 14-day after minus initial, 60° C. and 95% RH", "result": 2.5}, {"measurement": "b* value, 14-day after", "setting": "[3]; acrylic resin filter, 14 days at 60° C. and 95% RH", "result": 6.1}, {"measurement": "b* value, initial period", "setting": "[3]; acrylic resin filter, before test", "result": 3.6}, {"measurement": "thermal decomposition point (the weight decrease starting point)", "setting": "[4]", "result": "around 282 °C"}, {"measurement": "molar absorption coefficient (ε)", "setting": "[5]", "result": "109,000"}, {"measurement": "λmax", "setting": "[6]", "result": "1,064 nm"}, {"measurement": "remaining ratio of cyanine dye (%), initial period", "setting": "[7]; OM-57 dye film with compound added, before irradiation", "result": 100, "unit": "%"}, {"measurement": "remaining ratio of cyanine dye (%), 100-hour after", "setting": "[7]; [8]", "result": 47, "unit": "%"}, {"measurement": "remaining ratio of cyanine dye (%), 150-hour after", "setting": "[7]; [9]", "result": 27, "unit": "%"}]}]}
